# Counter-ions that a name gives are not always drawn.
# System: PMS1
# Experiment: Mini-Gene Reporter Assay—PMS1 (firefly luciferase mini-gene reporter transiently transfected into HEK293 cells)
# Format: cell-based
# Details: Homo sapiens, mini-gene firefly luciferase reporter in HEK293 cells; for activation at 5 µM: read-out: PMS1 % Effect at 5 uM
# Procedure, shortened: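 HEK293 cells transiently transfected with a mini-gene construct (skipped exon with flanking introns/exons fused to firefly luciferase, pcDNA3.1) are incubated with compounds in duplicate. Exon inclusion raises luminescence; EC50 fitted by Levenberg-Marquardt; effect also scored at 5 μM.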
IC50 [nM],SMILES,activation at 5 µM [%]
,"COc1cc2nc(C)cn2cc1C(=O)Nc1ccc(N2C3CCNCC2CC3)cc1F (stereo not drawn) [Compound 148, N-(4-(3,9-diazabicyclo[4.2.1]nonan-9-yl)-2-fluorophenyl)-7-methoxy-2-methylimidazo[1,2-a]pyridine-6-carboxamide]",< 50
,CCOc1cc2nn(C)cc2cc1C(=O)Nc1cnc(N2CC(N)CC2C)nc1 (stereo not drawn) [Compound 416],50 to 75
,CCOc1cc2nn(C)cc2cc1C(=O)Nc1cnc(NCC2CCCCN2)nc1 (stereo not drawn) [Compound 469],< 50
,CCOc1cn2nc(C)cc2cc1C(=O)Nc1cnc(N(C)C2CCNC2)cn1 (stereo not drawn) [Compound 551],> 75
,CCOc1cc2nc(C)cn2cc1C(=O)Nc1cnc(N2CCOC3(CCNC3)C2)cn1 (stereo not drawn) [Compound 676],50 to 75
,CCOc1cn2nc(C)cc2cc1C(=O)Nc1cnc(N2CCC(NC)CC2)cn1 [Compound 553],> 75
< 1000,CCNC1CCN(c2ccc(NC(=O)c3cn4cc(C)nc4cc3OCC)nn2)C1 (stereo not drawn) [Compound 244],
1000 to 10000,CCOc1cc2nc(C)cn2cc1C(=O)Nc1ccc(N2CCN(C3CNC3)CC2)nn1 [Compound 272],
,"COc1cc2nc(C)cn2cc1C(=O)Nc1ccc(N2CCCNC(CO)C2)cc1F (stereo not drawn) [Compound 141, N-(2-fluoro-4-(3-(hydroxymethyl)-1,4-diazepan-1-yl)phenyl)-7-methoxy-2-methylimidazo[1,2-a]pyridine-6-carboxamide]",50 to 75
,CCOc1cc2nn(C)cc2cc1C(=O)Nc1cnc(NCC2CCCCNC2)nc1 (stereo not drawn) [Compound 428],< 50
,CCOc1cn2nc(C)cc2cc1C(=O)Nc1cnc(NCC2CNCC23CC3)cn1 (stereo not drawn) [Compound 496],> 75
1000 to 10000,CCOc1cc2nc(C)cn2cc1C(=O)Nc1ccc(N2CCC(NCCOC)CC2)nn1 [Compound 245],
,CCOc1cc2nn(C)cc2cc1C(=O)Nc1cnc(N2CC(NC)C3(CC3)C2)cn1 (stereo not drawn) [Compound 316],50 to 75
,"CCOc1cc2nc(C)cn2cc1C(=O)Nc1ccc(C2=CCN(C)CC2)nn1 [Compound 759, 7-ethoxy-2-methyl-N-(6-(1-methyl-1,2,3,6-tetrahydropyridin-4-yl)pyridazin-3-yl)imidazo[1,2-a]pyridine-6-carboxamide]",> 75
,CCOc1cc2nn(C)cc2cc1C(=O)Nc1cnc(N2CCC3(CC2)CNCCO3)cn1 [Compound 350],50 to 75
,CCOc1cn2nc(C)cc2cc1C(=O)Nc1cnc(N2CCC(NCC3CC3)CC2)cn1 [Compound 517],> 75
,CCOc1cc2nn(C)cc2cc1C(=O)Nc1cnc(N2CCNC(C(F)F)C2)nc1 (stereo not drawn) [Compound 382],< 50
1000 to 10000,"CCOc1cc2nn(C)cc2cc1C(=O)Nc1cnc(N2CCN(C)[C@@H](C)C2)cn1 [Compound 743, (S)—N-(5-(3,4-dimethylpiperazin-1-yl)pyrazin-2-yl)-6-ethoxy-2-methyl-2H-indazole-5-carboxamide formate]",
,CCOc1cc2nn(C)cc2cc1C(=O)Nc1cnc(N2CCCC2CNC)nc1 (stereo not drawn) [Compound 437],< 50
,CCOc1cn2nc(C)cc2cc1C(=O)Nc1cnc(N(C)CCNC)nc1 [Compound 599],< 50

IC50 [nM],SMILES,activation at 5 µM [%]
,CCOc1cc2nn(C)cc2cc1C(=O)Nc1cnc(N2CCC3(CCCN3)CC2)cn1 [Compound 343],> 75
< 1000,COc1cc2nc(C)cn2cc1C(=O)Nc1ccc(N2C[C@@H]3C[C@H]2CN3)cc1F [Compound 628],
,CCOc1cc2nn(C)cc2cc1C(=O)Nc1cnc(NCc2cnn3c2CNCC3)nc1 [Compound 409],< 50
,CCOc1cn2nc(C)cc2cc1C(=O)Nc1cnc(N2CCC(C3(O)CCNCC3)CC2)cn1 [Compound 505],50 to 75
,CCOc1cn2nc(C)cc2cc1C(=O)Nc1cnc(N2CC3(CCNCC3)C2)cn1 [Compound 548],> 75
,"COc1cc2nc(C)cn2cc1C(=O)Nc1ccc(N2CCC3(CCCN3)C2)cc1F (stereo not drawn) [Compound 146, N-(2-fluoro-4-(1,7-diazaspiro[4.4]nonan-7-yl)phenyl)-7-methoxy-2-methylimidazo[1,2-a]pyridine-6-carboxamide]",< 50
,"CCOc1cc2nc(C)cn2cc1C(=O)Nc1ccc(N2CC[C@@H](NC)C2)nn1 (single isomer, unassigned) [Compound 707]",> 75
1000 to 10000,CCNC1CCN(c2ccc(NC(=O)c3cn4cc(C)nc4cc3OCC)nn2)CC1 [Compound 269],
,CCOc1cn2nc(C)cc2cc1C(=O)Nc1cnc(NCC2CCNCC2)cn1 [Compound 555],< 50
1000 to 10000,"COc1cc2nn(C)cc2cc1C(=O)Nc1ccc(N2CCNCC2)nn1 [Compound 123, 6-methoxy-2-methyl-N-(6-(piperazin-1-yl)pyridazin-3-yl)-2H-indazole-5-carboxamide hydrochloride]",
< 1000,"CCOc1nc2nc(C)cn2cc1C(=O)Nc1ccc(N2CCNCC2)cn1 [Compound 711, 7-ethoxy-2-methyl-N-(5-(piperazin-1-yl)pyridin-2-yl)imidazo[1,2-a]pyrimidine-6-carboxamide formate]",
,CCOc1cc2nn(C)cc2cc1C(=O)Nc1cnc(NC2CNCC3(CCC3)C2)cn1 (stereo not drawn) [Compound 313],< 50
,CCOc1cn2nc(C)cc2cc1C(=O)Nc1cnc(NC2CCN(C(=O)CCCNC)CC2)cn1 [Compound 513],< 50
,CCOc1cn2nc(C)cc2cc1C(=O)Nc1cnc(N2CCC3(CCCN3)CC2)nc1 [Compound 579],> 75
,"COc1cc2nc(C)cn2cc1C(=O)Nc1ccc(N2CCC3(CNC3)C2)cc1F [Compound 152, N-(2-fluoro-4-(2,6-diazaspiro[3.4]octan-6-yl)phenyl)-7-methoxy-2-methylimidazo[1,2-a]pyridine-6-carboxamide]",< 50
,CCOc1cc2nn(C)cc2cc1C(=O)Nc1cnc(N[C@H]2C[C@H]3CC[C@@H](C2)N3)cn1 [Compound 367],> 75
,"Cc1cn2cc(C(=O)Nc3ccc(N4C[C@H]5CC[C@@H](C4)N5)cc3F)ncc2n1 [Compound 106, N-(4-((1R,5S)-3,8-diazabicyclo[3.2.1]octan-3-yl)-2-fluorophenyl)-2-methylimidazo[1,2-a]pyrazine-6-carboxamide]",< 50
1000 to 10000,CCOc1cc2nc(C)cn2cc1C(=O)Nc1ccc(N2CCC3(CCNCC3)CC2)nn1 [Compound 284],
< 1000,"COc1cc2nc(C)cn2cc1C(=O)Nc1ccc(N2CCNCC2C)cc1F (stereo not drawn) [Compound 177, N-(2-fluoro-4-(2-methylpiperazin-1-yl)phenyl)-7-methoxy-2-methylimidazo[1,2-a]pyridine-6-carboxamide]",
1000 to 10000,CCOc1cc2nc(C)cn2cc1C(=O)Nc1ccc(N2CCC3CCNCC3C2)nn1 (stereo not drawn) [Compound 240],

IC50 [nM],SMILES,activation at 5 µM [%]
,CCOc1cn2nc(C)cc2cc1C(=O)Nc1cnc(NCCNCCOC)cn1 [Compound 531],< 50
1000 to 10000,"CCOc1cc2nc(C)cn2cc1C(=O)Nc1ccc(N2C[C@@H](C)N(C)[C@@H](C)C2)nn1 [Compound 740, 7-ethoxy-2-methyl-N-(6-((3S,5R)-3,4,5-trimethylpiperazin-1-yl)pyridazin-3-yl)imidazo[1,2-a]pyridine-6-carboxamide]",
,CCOc1cc2nc(C)cn2cc1C(=O)Nc1cnc(N2CC[C@@H](C)[C@@H](NC)C2)cn1 [Compound 671],< 50
,CCOc1cn2nc(C)cc2cc1C(=O)Nc1cnc(N2CCNC(CS(C)(=O)=O)C2)nc1 (stereo not drawn) [Compound 608],< 50
< 1000,COc1cc2nc(C)cn2cc1C(=O)Nc1ccc(N2CC[C@@H]3NCC[C@@H]3C2)cc1F [Compound 629],
,"CNC1CCCN(c2ccc(NC(=O)c3cn4cc(C)nc4cc3OC)c(F)c2)C1 (stereo not drawn) [Compound 167, N-(2-fluoro-4-(3-(methylamino)piperidin-1-yl)phenyl)-7-methoxy-2-methylimidazo[1,2-a]pyridine-6-carboxamide]",50 to 75
,CCOc1cn2nc(C)cc2cc1C(=O)Nc1cnc(NCC2C=CCN2)nc1 (stereo not drawn) [Compound 562],< 50
1000 to 10000,CCOc1cc2nc(C)cn2cc1C(=O)Nc1ccc(N2C[C@@H]3C[C@H]2CN3)nn1 [Compound 285],
1000 to 10000,CCOc1cc2nc(C)cn2cc1C(=O)Nc1ccc(N2CCNC(C)C2C)nn1 (stereo not drawn) [Compound 268],
,CCOc1cn2nc(C)cc2cc1C(=O)Nc1cnc(NCCC2CC(F)(F)CN2)nc1 (stereo not drawn) [Compound 567],< 50
,CCOc1cn2nc(C)cc2cc1C(=O)Nc1cnc(N2CCC(n3ncc4c3CNC4)CC2)cn1 [Compound 507],< 50
,CCOc1cn2nc(C)cc2cc1C(=O)Nc1cnc(N2CCC(N)(c3cccc(F)c3)C2)nc1 (stereo not drawn) [Compound 568],< 50
,CCOc1cc2nn(C)cc2cc1C(=O)Nc1cnc(NC[C@H]2CNCC(C)(C)O2)nc1 [Compound 394],< 50
,CCOc1cc2nn(C)cc2cc1C(=O)Nc1cnc(N2CCCC(NCCO)C2)cn1 (stereo not drawn) [Compound 339],> 75
,CCOc1cc2nn(C)cc2cc1C(=O)Nc1cnc(NCc2cc3n(n2)CCNC3)nc1 [Compound 393],< 50
,"CCOc1cc2nn(C)cc2cc1C(=O)Nc1ccc(C2=CC(C)NCC2)nn1 (stereo not drawn) [Compound 752, 6-ethoxy-2-methyl-N-(6-(6-methyl-1,2,3,6-tetrahydropyridin-4-yl)pyridazin-3-yl)-2H-indazole-5-carboxamide]",> 75
,CCOc1cc2nc(C)cn2cc1C(=O)Nc1cnc(N2C3CCC2CNC3)cn1 [Compound 686],> 75
,CCOc1cc2nn(C)cc2cc1C(=O)Nc1cnc(NC2CCNCC2C)cn1 (stereo not drawn) [Compound 348],50 to 75

SMILES,IC50 [nM],activation at 5 µM [%]
CCOc1cc2nc(C)cn2cc1C(=O)Nc1ccc(N2CC3CCCC(C2)NC3)nn1 (stereo not drawn) [Compound 248],1000 to 10000,
"Cc1cn2cc(C(=O)Nc3ccc(N4CCNCC4)nn3)c(OC3CCC3)cc2n1 [Compound 205, 7-cyclobutoxy-2-methyl-N-(6-(piperazin-1-yl)pyridazin-3-yl)imidazo[1,2-a]pyridine-6-carboxamide hydrochloride]",< 1000,
